Paper PMC7724566, “Prospects for Clinical Development of Stat5 Inhibitor IST5-002: High Transcriptomic Specificity in Prostate Cancer and Low Toxicity In Vivo” (Cancers, 2020)

Key:
[1] = system: C57BL/6J and athymic nude mice; assay: Acute and chronic toxicity studies, clinical observation and histology; assay type: in vivo
Description: The acute and chronic toxicity studies were carried out in both male C57BL/6J and athymic nude mice (Table 3 and Table 4) using daily administration of IST5 vs. vehicle at doses of 0, 10, 30 and 100 mg/kg (n = 5/dose) as well as in female (data not shown) mice. There were no signs of anemia (hemoglobin-HGB; hematocrit-HCT), thrombocytopenia or leukopenia. In either acute or chronic toxicity studies, there was no mortality in the mice associated with IST5 treatment. The gross histology of the liver, spleen (Figure 6), kidney and brain were normal (28 d). […] IST5 had no effects on body weight, organ weight, appearance, respiration, or eye function. Of note, a number of the Jak2 kinase inhibitors in use or in clinical development have shown off-target inhibitory effects on TrkB kinase (a receptor for brain-derived neurotrophic factor), thereby causing neurological side-effects.
Figure 6 IST5 […] significant chronic toxicity in vivo in mice. The chronic toxicity studies were carried out in both male and female C57BL/6J and athymic nude mice by daily administration of IST5 vs. vehicle at doses of 0, 10, 30 and 100 mg/kg (n = 5/dose). At the end of the study, heart, kidney, liver, lung and spleen tissues were fixed and stained with hematoxylin and eosin. The gross histology of heart, liver, spleen, kidney, spleen and brain were all normal (28 d).
Forty athymic nude mice (8 weeks) (Crl:NU/NCr-Foxn1n) of either sex (20 males and 20 females) were randomized into four groups (n = 5/group) for either sex. The randomization of the mice was carried out based on their baseline body weight measured on day 0. IST5 or vehicle (0.3% hydroxypropyl cellulose, (Sigma-Aldrich, MO, St. Louis, MO, USA) were administered to the mice by i.p. injection for 28 days. The mice were observed daily for behavior, and body weights were measured on every 3rd day throughout the 28-day experimental protocol. The monitoring was started immediately after the compound administration and continued for 2 h for any acute signs of toxicity. In addition, the mice were monitored daily for any signs of toxicity using several clinical parameters. The clinical signs that were taken into consideration were as follows: 1) weight loss: rapid weight loss ([…]) or, weight loss of extended period time ([…]); 2) rapid growth of mass or masses; 3) paralysis or paresis (partial paralysis); 4) frank bleeding from any orifice; 5) lesions interfering with eating or drinking; 6) diarrhea (non-formed/soft stool or diarrhea liquid stool); 6) loss of body temperature; 7) appearance: rough coat, porphyrin staining (red or brown staining around eyes, nose, or along front paws, distended abdomen, alopecia; 8) eyes: ocular discharge, pale appearance, distinct icterus (jaundice or yellowing of the eyes); 9) respiration: coughing or wheezing, rales or crackling in the lungs, respiration increased or labored; 10) behavioral: hunched posture, huddling in a corner, lethargy, avoiding cagemate(s), head tilt, tremors (head, body, tail), spasticity (stiff muscles), ataxia (loss of voluntary muscle movement), seizures or convulsions, circling, persistent self-induced trauma, chattering or vocalizations, loss of startle response, loss of righting reflex. The clinical chemistry parameters measured were the same as those used for the acute toxicity study.
The sub-chronic toxicity study (10 days) was carried out in C57BL/6J mice (8 weeks) (stock 000664) (n = 10/dose group 5 of each sex). […]

LCK = biological target: T1, LCK (Homo sapiens, UniProt P06239); assay: Kinase Seeker luminescence cell-free assay; assay type: binding; conditions: percent activity of kinase after exposure to IST5 1 µM
T1 construct: purchased Reaction Biology (JAK1/2/3, TYK2); Luceome Biotechnologies KinaseSeeker (others)
Description: (§1) For Jak1, Jak2, Jak3 and Tyk2, a radiometric filtration binding assay was conducted by Reaction Biologicals (Malvern, PA, USA) (Table 1). This radiometric assay is a cell-free assay which is based on conventional filter-binding assays, directly measuring kinase catalytic activity toward a specific substrate. For evaluation of the activity of the other kinases, the Kinase Seeker Technology was utilized (Luceome Biotechnologies, Tucson, AZ, USA), which is a luminescence-based cell-free assay. In this assay, the reassembly of luciferase fragments is mediated by the interaction of a kinase with an active site-dependent probe. The competitive displacement of the probe by an inhibitor is measured by a change in luminescence signal. Percent activity of each kinase after exposure to IST5 (1 µM) is presented.

TRKC = biological target: T2, TRKC (Homo sapiens, UniProt Q16288); assay: Kinase Seeker luminescence cell-free assay; assay type: binding; conditions: percent activity of kinase after exposure to IST5 1 µM
T2 construct: purchased Reaction Biology (JAK1/2/3, TYK2); Luceome Biotechnologies KinaseSeeker (others)
Description: as §1

DDR1 = biological target: T3, DDR1 (Homo sapiens, UniProt Q08345); assay: Kinase Seeker luminescence cell-free assay; assay type: binding; conditions: percent activity of kinase after exposure to IST5 1 µM
T3 construct: purchased Reaction Biology (JAK1/2/3, TYK2); Luceome Biotechnologies KinaseSeeker (others)
Description: as §1

TNK2 = biological target: T4, TNK2 (Homo sapiens, UniProt Q07912); assay: Kinase Seeker luminescence cell-free assay; assay type: binding; conditions: percent activity of kinase after exposure to IST5 1 µM
T4 construct: purchased Reaction Biology (JAK1/2/3, TYK2); Luceome Biotechnologies KinaseSeeker (others)
Description: as §1

CAMK1D = biological target: T5, CAMK1D (Homo sapiens, UniProt Q8IU85); assay: Kinase Seeker luminescence cell-free assay; assay type: binding; conditions: percent activity of kinase after exposure to IST5 1 µM
T5 construct: purchased Reaction Biology (JAK1/2/3, TYK2); Luceome Biotechnologies KinaseSeeker (others)
Description: as §1

AURKB = biological target: T6, AURKB (Homo sapiens, UniProt Q96GD4); assay: Kinase Seeker luminescence cell-free assay; assay type: binding; conditions: percent activity of kinase after exposure to IST5 1 µM
T6 construct: purchased Reaction Biology (JAK1/2/3, TYK2); Luceome Biotechnologies KinaseSeeker (others)
Description: as §1

MLK1 = biological target: T7, MLK1 (Homo sapiens, UniProt P80192); assay: Kinase Seeker luminescence cell-free assay; assay type: binding; conditions: percent activity of kinase after exposure to IST5 1 µM
T7 construct: purchased Reaction Biology (JAK1/2/3, TYK2); Luceome Biotechnologies KinaseSeeker (others)
Description: as §1

ABL1 = biological target: T8, ABL1 (Homo sapiens, UniProt P00519); assay: Kinase Seeker luminescence cell-free assay; assay type: binding; conditions: percent activity of kinase after exposure to IST5 1 µM
T8 construct: purchased Reaction Biology (JAK1/2/3, TYK2); Luceome Biotechnologies KinaseSeeker (others)
T8 sequence (P00519 whole entry): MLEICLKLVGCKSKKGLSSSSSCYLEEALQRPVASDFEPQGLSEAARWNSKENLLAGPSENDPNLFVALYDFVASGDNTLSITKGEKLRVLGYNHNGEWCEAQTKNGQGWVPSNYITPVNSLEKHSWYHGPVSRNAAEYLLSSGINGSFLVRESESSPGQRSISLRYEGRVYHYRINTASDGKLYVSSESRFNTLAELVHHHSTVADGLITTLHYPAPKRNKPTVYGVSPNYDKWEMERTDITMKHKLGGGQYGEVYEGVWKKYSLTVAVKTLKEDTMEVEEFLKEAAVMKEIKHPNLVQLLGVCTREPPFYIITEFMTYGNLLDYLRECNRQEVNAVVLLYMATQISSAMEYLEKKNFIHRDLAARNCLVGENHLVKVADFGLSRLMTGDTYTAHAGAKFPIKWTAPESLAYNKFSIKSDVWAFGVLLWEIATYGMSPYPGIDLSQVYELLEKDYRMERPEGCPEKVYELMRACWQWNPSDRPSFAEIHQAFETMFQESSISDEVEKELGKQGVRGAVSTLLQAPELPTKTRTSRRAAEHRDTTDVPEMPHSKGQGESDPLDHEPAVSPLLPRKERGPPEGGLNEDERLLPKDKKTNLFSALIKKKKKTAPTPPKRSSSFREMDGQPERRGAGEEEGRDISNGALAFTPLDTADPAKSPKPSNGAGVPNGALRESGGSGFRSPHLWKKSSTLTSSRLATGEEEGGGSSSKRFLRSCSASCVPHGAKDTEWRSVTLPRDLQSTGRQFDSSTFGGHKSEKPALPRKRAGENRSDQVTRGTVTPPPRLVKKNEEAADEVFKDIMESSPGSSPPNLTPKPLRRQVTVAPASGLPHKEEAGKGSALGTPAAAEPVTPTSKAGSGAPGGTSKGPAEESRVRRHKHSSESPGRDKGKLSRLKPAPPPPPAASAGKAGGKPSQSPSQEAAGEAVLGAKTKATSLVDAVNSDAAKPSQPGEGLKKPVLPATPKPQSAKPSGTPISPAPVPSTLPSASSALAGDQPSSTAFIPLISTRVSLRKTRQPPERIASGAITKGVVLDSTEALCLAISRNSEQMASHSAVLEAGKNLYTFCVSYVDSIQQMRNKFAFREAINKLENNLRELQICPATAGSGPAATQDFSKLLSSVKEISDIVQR
Description: as §1

MUSK = biological target: T9, MUSK (Homo sapiens, UniProt O15146); assay: Kinase Seeker luminescence cell-free assay; assay type: binding; conditions: percent activity of kinase after exposure to IST5 1 µM
T9 construct: purchased Reaction Biology (JAK1/2/3, TYK2); Luceome Biotechnologies KinaseSeeker (others)
T9 sequence (O15146 24-869): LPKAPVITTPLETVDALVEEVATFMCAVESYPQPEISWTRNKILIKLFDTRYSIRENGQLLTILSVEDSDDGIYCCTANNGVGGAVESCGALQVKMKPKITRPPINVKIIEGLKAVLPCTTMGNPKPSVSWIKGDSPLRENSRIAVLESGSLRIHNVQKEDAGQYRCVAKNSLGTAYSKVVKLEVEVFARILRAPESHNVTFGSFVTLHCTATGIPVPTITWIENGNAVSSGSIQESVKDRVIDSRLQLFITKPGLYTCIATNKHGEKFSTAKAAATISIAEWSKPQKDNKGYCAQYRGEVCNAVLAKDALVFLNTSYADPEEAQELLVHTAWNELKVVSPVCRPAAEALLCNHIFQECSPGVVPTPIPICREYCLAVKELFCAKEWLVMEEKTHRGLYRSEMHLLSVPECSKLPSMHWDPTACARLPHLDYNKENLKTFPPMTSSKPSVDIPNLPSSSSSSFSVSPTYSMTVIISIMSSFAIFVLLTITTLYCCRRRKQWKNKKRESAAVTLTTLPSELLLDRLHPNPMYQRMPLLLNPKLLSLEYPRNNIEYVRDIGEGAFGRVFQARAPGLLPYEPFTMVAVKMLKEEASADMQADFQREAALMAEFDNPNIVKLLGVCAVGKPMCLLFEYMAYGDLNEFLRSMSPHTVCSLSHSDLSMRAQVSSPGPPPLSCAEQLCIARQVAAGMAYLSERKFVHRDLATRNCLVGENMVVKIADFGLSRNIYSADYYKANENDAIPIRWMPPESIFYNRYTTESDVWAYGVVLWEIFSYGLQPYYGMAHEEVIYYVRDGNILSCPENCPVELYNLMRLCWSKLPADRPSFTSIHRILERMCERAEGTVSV
Description: as §1

AXL = biological target: T10, AXL (Homo sapiens, UniProt P30530); assay: Kinase Seeker luminescence cell-free assay; assay type: binding; conditions: percent activity of kinase after exposure to IST5 1 µM
T10 construct: purchased Reaction Biology (JAK1/2/3, TYK2); Luceome Biotechnologies KinaseSeeker (others)
T10 sequence (P30530 26-894): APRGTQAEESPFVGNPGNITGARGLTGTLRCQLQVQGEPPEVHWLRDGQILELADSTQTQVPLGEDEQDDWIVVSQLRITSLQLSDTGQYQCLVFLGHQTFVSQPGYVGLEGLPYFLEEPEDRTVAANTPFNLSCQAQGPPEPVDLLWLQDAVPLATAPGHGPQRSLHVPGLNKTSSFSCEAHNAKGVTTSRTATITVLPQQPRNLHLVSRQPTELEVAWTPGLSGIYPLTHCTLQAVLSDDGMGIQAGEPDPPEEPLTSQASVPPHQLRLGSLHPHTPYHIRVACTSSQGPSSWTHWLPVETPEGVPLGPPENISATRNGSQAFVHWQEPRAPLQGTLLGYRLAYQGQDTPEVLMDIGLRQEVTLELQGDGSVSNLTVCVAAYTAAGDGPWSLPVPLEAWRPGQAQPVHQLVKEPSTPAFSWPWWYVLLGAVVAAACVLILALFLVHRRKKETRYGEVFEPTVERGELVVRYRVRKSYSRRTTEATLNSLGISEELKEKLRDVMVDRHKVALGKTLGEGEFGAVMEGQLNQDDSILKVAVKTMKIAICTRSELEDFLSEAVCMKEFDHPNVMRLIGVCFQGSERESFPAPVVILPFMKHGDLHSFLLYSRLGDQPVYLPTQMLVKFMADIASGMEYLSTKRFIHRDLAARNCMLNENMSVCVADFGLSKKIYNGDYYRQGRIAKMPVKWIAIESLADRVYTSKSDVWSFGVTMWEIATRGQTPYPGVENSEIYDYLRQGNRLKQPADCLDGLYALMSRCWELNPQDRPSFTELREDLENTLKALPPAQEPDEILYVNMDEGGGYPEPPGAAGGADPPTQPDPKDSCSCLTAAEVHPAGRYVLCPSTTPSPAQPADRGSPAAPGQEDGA
Description: as §1

SLK = biological target: T11, SLK (Homo sapiens, UniProt Q9H2G2); assay: Kinase Seeker luminescence cell-free assay; assay type: binding; conditions: percent activity of kinase after exposure to IST5 1 µM
T11 construct: purchased Reaction Biology (JAK1/2/3, TYK2); Luceome Biotechnologies KinaseSeeker (others)
T11 sequence (Q9H2G2 whole entry): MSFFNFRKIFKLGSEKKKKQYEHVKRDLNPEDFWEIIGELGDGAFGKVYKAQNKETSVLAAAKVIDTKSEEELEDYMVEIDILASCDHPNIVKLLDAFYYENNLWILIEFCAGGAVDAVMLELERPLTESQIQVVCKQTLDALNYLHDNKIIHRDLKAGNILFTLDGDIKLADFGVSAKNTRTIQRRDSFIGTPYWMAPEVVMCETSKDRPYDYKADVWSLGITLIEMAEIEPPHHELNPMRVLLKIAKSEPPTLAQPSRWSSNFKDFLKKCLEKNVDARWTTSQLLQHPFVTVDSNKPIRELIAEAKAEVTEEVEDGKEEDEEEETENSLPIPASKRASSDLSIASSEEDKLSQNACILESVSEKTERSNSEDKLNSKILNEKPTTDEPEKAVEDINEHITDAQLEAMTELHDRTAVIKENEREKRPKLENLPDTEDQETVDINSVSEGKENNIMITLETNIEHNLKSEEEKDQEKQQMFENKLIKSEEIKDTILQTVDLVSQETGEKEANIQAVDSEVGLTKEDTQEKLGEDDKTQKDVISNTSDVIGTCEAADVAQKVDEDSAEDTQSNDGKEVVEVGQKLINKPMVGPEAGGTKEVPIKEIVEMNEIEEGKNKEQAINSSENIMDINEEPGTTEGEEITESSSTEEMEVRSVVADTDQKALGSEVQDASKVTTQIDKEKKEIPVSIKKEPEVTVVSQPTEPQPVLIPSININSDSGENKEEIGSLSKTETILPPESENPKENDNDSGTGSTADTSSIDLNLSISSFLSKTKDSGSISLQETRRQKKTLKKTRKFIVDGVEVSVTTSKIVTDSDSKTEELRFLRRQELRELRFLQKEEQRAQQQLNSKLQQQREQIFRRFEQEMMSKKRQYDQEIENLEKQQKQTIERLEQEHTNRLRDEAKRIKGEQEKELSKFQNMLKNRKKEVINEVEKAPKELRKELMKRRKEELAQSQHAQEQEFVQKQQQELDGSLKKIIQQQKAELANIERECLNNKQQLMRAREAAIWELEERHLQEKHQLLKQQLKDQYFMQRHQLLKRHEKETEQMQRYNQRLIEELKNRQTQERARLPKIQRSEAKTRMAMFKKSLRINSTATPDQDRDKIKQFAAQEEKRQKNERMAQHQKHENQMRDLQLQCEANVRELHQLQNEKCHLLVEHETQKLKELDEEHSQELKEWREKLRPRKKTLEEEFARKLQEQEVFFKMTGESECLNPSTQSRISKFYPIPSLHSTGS
Description: as §1

SYK = biological target: T12, SYK (Homo sapiens, UniProt P43405); assay: Kinase Seeker luminescence cell-free assay; assay type: binding; conditions: percent activity of kinase after exposure to IST5 1 µM
T12 construct: purchased Reaction Biology (JAK1/2/3, TYK2); Luceome Biotechnologies KinaseSeeker (others)
Description: as §1

PLK4 = biological target: T13, PLK4 (Homo sapiens, UniProt O00444); assay: Kinase Seeker luminescence cell-free assay; assay type: binding; conditions: percent activity of kinase after exposure to IST5 1 µM
T13 construct: purchased Reaction Biology (JAK1/2/3, TYK2); Luceome Biotechnologies KinaseSeeker (others)
Description: as §1

PYK1 = assay: Kinase Seeker luminescence cell-free assay; assay type: binding; conditions: percent activity of kinase after exposure to IST5 1 µM
Description: as §1

IKKe = biological target: T14, IKKe (Homo sapiens, UniProt Q14164); assay: Kinase Seeker luminescence cell-free assay; assay type: binding; conditions: percent activity of kinase after exposure to IST5 1 µM
T14 construct: purchased Reaction Biology (JAK1/2/3, TYK2); Luceome Biotechnologies KinaseSeeker (others)
Description: as §1

FLT2/3 = assay: Kinase Seeker luminescence cell-free assay; assay type: binding; conditions: percent activity of kinase after exposure to IST5 1 µM
Description: as §1

PIM1 = biological target: T15, PIM1 (Homo sapiens, UniProt P11309); assay: Kinase Seeker luminescence cell-free assay; assay type: binding; conditions: percent activity of kinase after exposure to IST5 1 µM
T15 construct: purchased Reaction Biology (JAK1/2/3, TYK2); Luceome Biotechnologies KinaseSeeker (others)
Description: as §1

MSK2 = biological target: T16, MSK2 (Homo sapiens, UniProt O75676); assay: Kinase Seeker luminescence cell-free assay; assay type: binding; conditions: percent activity of kinase after exposure to IST5 1 µM
T16 construct: purchased Reaction Biology (JAK1/2/3, TYK2); Luceome Biotechnologies KinaseSeeker (others)
T16 sequence (O75676 whole entry): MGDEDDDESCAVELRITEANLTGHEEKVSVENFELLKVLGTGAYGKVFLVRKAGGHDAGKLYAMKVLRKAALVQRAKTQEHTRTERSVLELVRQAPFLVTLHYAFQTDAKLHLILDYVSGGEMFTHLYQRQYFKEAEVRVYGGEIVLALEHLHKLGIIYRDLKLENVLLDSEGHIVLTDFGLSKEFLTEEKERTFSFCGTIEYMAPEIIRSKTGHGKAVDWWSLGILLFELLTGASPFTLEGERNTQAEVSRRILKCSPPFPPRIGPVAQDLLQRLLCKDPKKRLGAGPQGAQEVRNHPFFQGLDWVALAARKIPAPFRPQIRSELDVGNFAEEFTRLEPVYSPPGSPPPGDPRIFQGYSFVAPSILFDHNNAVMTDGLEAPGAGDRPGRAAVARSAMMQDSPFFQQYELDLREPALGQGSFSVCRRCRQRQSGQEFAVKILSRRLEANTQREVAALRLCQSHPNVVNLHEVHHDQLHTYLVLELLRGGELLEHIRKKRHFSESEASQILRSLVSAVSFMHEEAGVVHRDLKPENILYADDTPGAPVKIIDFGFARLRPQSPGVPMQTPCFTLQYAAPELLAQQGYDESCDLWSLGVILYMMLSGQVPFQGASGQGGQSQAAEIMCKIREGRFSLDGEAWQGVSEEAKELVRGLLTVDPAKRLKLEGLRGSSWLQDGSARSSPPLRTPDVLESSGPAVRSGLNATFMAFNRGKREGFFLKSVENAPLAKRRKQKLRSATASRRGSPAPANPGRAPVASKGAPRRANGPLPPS
Description: as §1

## O=P(O)(O)OCC1OC(n2cnc3c(NCc4ccccc4)ncnc32)C(O)C1O (centres unmarked) [IST5]
[1]; acute or chronic toxicity studies, 10, 30 and 100 mg/kg
  mortality associated with treatment: no mortality
[1]; daily 10, 30 and 100 mg/kg
  signs of anemia, thrombocytopenia or leukopenia: no signs
[1]; mouse, in vivo
  adverse effects on blood clinical chemistry (blood urea, liver enzymes, glucose, albumin): no adverse effects
  effects on body weight, organ weight, appearance, respiration, or eye function: no effects
  gross histology of liver, spleen, kidney and brain: normal
LCK
  Activity: 88.9%
TRKC
  Activity: 93.4%
DDR1
  Activity: 89.3%
TNK2
  Activity: 98.3%
CAMK1D
  Activity: 92.0%
AURKB
  Activity: 96.0%
MLK1
  Activity: 100.0%
ABL1
  Activity: 88.3%
MUSK
  Activity: 100.0%
AXL
  Activity: 90.4%
SLK
  Activity: 92.6%
SYK
  Activity: 92.1%
PLK4
  Activity: 85.8%
PYK1
  Activity: 93.4%
IKKe
  Activity: 84.8%
FLT2/3
  Activity: 93.6%
PIM1
  Activity: 93.9%
MSK2
  Activity: 90.0%
